US20210355106A1, “NEW AMINO-PYRIMIDONYL-PIPERIDINYL DERIVATIVES, A PROCESS FOR THEIR PREPARATION AND PHARMACEUTICAL COMPOSITIONS CONTAINING THEM” (LES LABORATOIRES SERVIER, priority 2018, published 2021)
Where a name gives a salt, the structure may show the parent alone.

These molecules were tested against T1, USP7 (Homo sapiens, UniProt Q93009, C315A) (assay: Inhibition of USP7 by Fluorescence Intensity (FLINT) readings, Ubiquitin-Rhodamine-110 substrate). Conditions: 0.25 nM His-His-USP7 (aa208-560), 60 minutes at 30° C. preincubation; Ki determined from IC50 according to Cer et al.
T1 construct: 0.25 nM His-His-USP7 (aa208-560, |C315A|) was incubated with compound; His-His (N)
T1 sequence (Q93009 208-560 C315A): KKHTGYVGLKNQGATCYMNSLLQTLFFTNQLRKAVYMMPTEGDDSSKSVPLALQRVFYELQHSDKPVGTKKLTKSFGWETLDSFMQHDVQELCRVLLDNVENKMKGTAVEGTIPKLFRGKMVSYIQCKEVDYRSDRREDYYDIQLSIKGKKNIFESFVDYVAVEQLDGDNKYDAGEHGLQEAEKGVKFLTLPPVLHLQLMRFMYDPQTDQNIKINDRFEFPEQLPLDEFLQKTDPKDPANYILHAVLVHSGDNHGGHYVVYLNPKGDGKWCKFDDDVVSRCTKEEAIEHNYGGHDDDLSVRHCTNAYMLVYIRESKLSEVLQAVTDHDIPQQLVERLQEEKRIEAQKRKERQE
Type: biochemical
Description: USP7 activity was measured using Rhodamine-110 c-terminal labelled Ubiquitin as a substrate (UbiQ Bio), Incubation with USP7 results in the release of Rhodamine-110 leading to an increase in fluorescence which can be used in the continuous measurement of USP7 activity.
The USP7 reactions were performed in a 50 μL volume, in 384 well black solid low binding plates (Corning #3575). The reaction buffer consisted of 100 mM Bicine pH 8.0, 0.01% TritonX 100, 1 mM TCEP, and 10% DMSO.
0.25 nM His-His-USP7 (aa208-560, |C315A|) was incubated with compound (final concentration 10% DMSO) for 60 minutes at 30° C. The reaction was then initiated by the addition of 50) nM Ubiquitin-Rhodamine-110 substrate or 4 μM Ubiquitin-Rhodamine-110 substrate and the plate read every 3 minutes for 21 minutes to measure the release of Rhodamine-110. Fluorescence Intensity (FLINT) readings were measured using a Biomek Neo plate reader (Ex.485 nm, Em.535 nm).
The inhibition of increasing doses of compound was expressed as a percentage reduction in kinetic rate compared to the kinetic rates established between ‘DMSO only’ and ‘total inhibition’ controls (no USP7). The inhibitory concentrations that gave a 50% reduction in kinetic rate (IC50) were determined, from 11-point dose response curves, in XL-Fit using a 4-Parameter Logistic Model 205 (Sigmoidal Dose-Response Model). The K, values were determined from the IC50 values according to Cer et al. Nucleic Acids Res. 2009, July 1; 37 (WebServer issue): W441-W445.
`CC1(N2CC[C@@H](C(=O)N3CCC(O)(Cn4cnc(Oc5ccccc5)c(N)c4=O)CC3)[C@H](c3ccccc3)C2)COC1` [Example 113, 5-amino-3-[[4-hydroxy-1-[(3R,4R)-1-(3-methyloxetan-3-yl)-3-phenyl-piperidine-4-carbonyl]-4-piperidyl]methyl]-6-phenoxy-pyrimidin-4-one] was tested, and the Ki was 30.6 nM.
With `Nc1c(Oc2ccc(F)cc2)ncn(CC2(O)CCN(C(=O)[C@@H]3CCN(C(=O)c4cccc(C5CCCNC5)c4)C[C@H]3c3ccccc3)CC2)c1=O` (stereo partly drawn) [Example 116, 5-amino-6-(4-fluorophenoxy)-3-[(4-hydroxy-1-((3R,4R)-3-phenyl-1-[3-(piperidin-3-yl)benzoyl]piperidine-4-carbonyl}piperidin-4-yl)methyl]pyrimidin-4(3H)-one] the Ki was 8 nM.
`CC(C)(C)OC(=O)N1CC[C@@H](C(=O)N2CCC(O)(Cn3cnc(Oc4ccc(F)cc4)c(N)c3=O)CC2)[C@H](c2ccccc2)C1` [Example 8, tert-butyl (3R,4R)-4-[4-[[5-amino-4-(4-fluorophenoxy)-6-oxo-pyrimidin-1-yl]methyl]-4-hydroxy-piperidine-1-carbonyl]-3-phenyl-piperidine-1-carboxylate] gave a Ki of 131 nM.
With `Cc1nc(-c2cccs2)sc1C(=O)N1CC[C@@H](C(=O)N2CCC(O)(Cn3cnc(Oc4ccc(F)cc4)c(N)c3=O)CC2)[C@H](c2ccccc2)C1` [Example 150, 5-amino-6-(4-fluorophenoxy)-3-[[4-hydroxy-1-[(3R,4R)-1-[4-methyl-2-(2-thienyl)thiazole-5-carbonyl]-3-phenyl-piperidine-4-carbonyl]-4-piperidyl]methyl]pyrimidin-4-one] the Ki was 21.9 nM.
For `Nc1c(Oc2ccc(F)cc2)ncn(C[C@@]2(O)CCN(C(=O)[C@@H]3CCN(C(=O)C4CC(c5ccccc5)C4)C[C@H]3c3ccccc3)CC2(F)F)c1=O` (single isomer, unassigned) [Example 71], the Ki was 112 nM.
In the case of `Nc1c(Oc2ccc(F)cc2)ncn(CC2(O)CCN(C(=O)[C@@H]3CCN(C(=O)NCC(F)(F)F)C[C@H]3c3ccccc3)CC2)c1=O` [Example 90], the Ki is reported as 345 nM.
Molecule `COc1ccc(NC(=O)N2CC[C@@H](C(=O)N3CCC(O)(Cn4cnc(Oc5ccc(F)cc5)c(N)c4=O)CC3)[C@H](c3ccccc3)C2)c(OC)c1` [Example 82] has a Ki of 16 nM.
Molecule `Nc1c(Oc2ccc(F)cc2)ncn(C[C@@]2(O)CCN(C(=O)[C@@H]3CCN(C(=O)C4CC(c5ccccc5)C4)C[C@H]3c3ccccc3)CC2(F)F)c1=O` (single isomer, unassigned) [Example 72] has a Ki of 235 nM.
With `Nc1c(Oc2ccc(F)cc2)ncn(CC2(O)CCN(C(=O)[C@@H]3CCNC[C@H]3c3ccccc3)CC2)c1=O` [Example 21, 5-amino-6-(4-fluorophenoxy)-3-[[4-hydroxy-1-[(3R,4R)-3-phenylpiperidine-4-carbonyl]-4-piperidyl]methyl]pyrimidin-4-one] the Ki was 103 nM.
`Nc1c(Oc2ccc(F)cc2)ncn(CC2(O)CCN(C(=O)[C@@H]3CCN(C4(c5cccc(Br)c5)COC4)C[C@H]3c3ccccc3)CC2)c1=O` [Example 170, 5-amino-3-[[1-[(3R,4R)-1-[3-(3-bromophenyl)oxetan-3-yl]-3-phenyl-piperidine-4-carbonyl]-4-hydroxy-4-piperidyl]methyl]-6-(4-fluorophenoxy)pyrimidin-4-one] gave a Ki of 78.5 nM.
For `CC(C)(C)OC(=O)N1CC[C@@H](C(=O)N2CCC(O)(Cn3cnc(Oc4ccc(Cl)c(F)c4)c(N)c3=O)CC2)[C@H](c2ccccc2)C1` [Example 3, tert-butyl (3R,4R)-4-[4-[[5-amino-4-(4-chloro-3-fluoro-phenoxy)-6-oxo-pyrimidin-1-yl]methyl]-4-hydroxy-piperidine-1-carbonyl]-3-phenyl-piperidine-1-carboxylate], the Ki was 125 nM.
`Nc1c(Oc2cccc(OC(F)(F)F)c2)ncn(CC2(O)CCN(C(=O)[C@@H]3CCNC[C@H]3c3ccccc3)CC2)c1=O` [Example 19, 5-amino-3-[[4-hydroxy-1-[(3R,4R)-3-phenylpiperidine-4-carbonyl]-4-piperidyl]methyl]-6-[3-(trifluoromethoxy)phenoxy]pyrimidin-4-one hydrochloride] showed a Ki of 344 nM.
`COc1cc(Cl)cc(Oc2ncn(CC3(O)CCN(C(=O)[C@@H]4CCNC[C@H]4c4ccccc4)CC3)c(=O)c2N)c1` [Example 15] showed a Ki of 286 nM.
Molecule `CC(C)(C)OC(=O)N1CC[C@@H](C(=O)N2CCC(O)(Cn3cnc(Oc4cccc(C(F)(F)F)c4)c(N)c3=O)CC2)[C@H](c2ccccc2)C1` [Example 5, tert-butyl (3R,4R)-4-[4-[[5-amino-6-oxo-4-[3-(trifluoromethyl)phenoxy]pyrimidin-1-yl]methyl]-4-hydroxy-piperidine-1-carbonyl]-3-phenyl-piperidine-1-carboxylate] has a Ki of 299 nM.
Work on `CC(C)C1(N2CC[C@@H](C(=O)N3CCC(O)(Cn4cnc(Oc5ccc(F)cc5)c(N)c4=O)CC3)[C@H](c3ccccc3)C2)COC1` [Example 112, 5-amino-6-(4-fluorophenoxy)-3-[[4-hydroxy-1-[(3R,4R)-1-(3-isopropyloxetan-3-yl)-3-phenyl-piperidine-4-carbonyl]-4-piperidyl]methyl]pyrimidin-4-one] yielded a Ki of 203 nM.
`Nc1c(Oc2ccc(F)cc2)ncn(CC2(O)CCN(C(=O)[C@@H]3CCN(S(=O)(=O)c4ccc(-c5cccs5)s4)C[C@H]3c3ccccc3)CC2)c1=O` [Example 118, 5-amino-6-(4-fluorophenoxy)-3-[[4-hydroxy-1-[(3R,4R)-3-phenyl-[[5-(2thienyl)-2-thienyl]sulfonyl]piperidine-4-carbonyl]-4-piperidyl]methyl]pyrimidin-4-one] was tested, and the Ki was 123 nM.
Work on `Nc1c(Oc2ccc(F)cc2)ncn(CC2(O)CCN(C(=O)[C@@H]3CCN(C(=O)NCc4ccccc4)C[C@H]3c3ccccc3)CC2)c1=O` [Example 79, (3R,4R)-4-[4-[[5-amino-4-(4-fluorophenoxy)-6-oxo-pyrimidin-1-yl]methyl]-4-hydroxy-piperidine-1-carbonyl]-N-benzyl-3-phenyl-piperidine-1-carboxamide] yielded a Ki of 121 nM.
`CC(C)(C)OC(=O)N1CC[C@@H](C(=O)N2CC[C@](O)(Cn3cnc(Oc4ccccc4)c(N)c3=O)C(F)(F)C2)[C@H](c2ccccc2)C1` [Example 9, tert-butyl (3R,4R)-4-[(4S)-4-[(5-amino-6-oxo-4-phenoxy-pyrimidin-1-yl)methyl]-3,3-difluoro-4-hydroxy-piperidine-1-carbonyl]-3-phenyl-piperidine-1-carboxylate] gave a Ki of 82.5 nM.
`Nc1c(Oc2ccc(F)cc2)ncn(CC2(O)CCN(C(=O)[C@@H]3CCN(C4(c5ccc(F)cc5)COC4)C[C@H]3c3ccccc3)CC2)c1=O` [Example 110, 5-amino-6-(4-fluorophenoxy)-3-[[1-[(3R,4R)-1-[3-(4-fluorophenyl)oxetan-3-yl]-3-phenyl-piperidine-4carbonyl]-4-hydroxy-4-piperidyl]methyl]pyrimidin-4-one] was tested, and the Ki was 182 nM.
For `CC(C)(O)CN1CC[C@@H](C(=O)N2CCC(O)(Cn3cnc(Oc4ccc(F)cc4)c(N)c3=O)CC2)[C@H](c2ccccc2)C1` [Example 73, 5-amino-6-(4-fluorophenoxy)-3-[[4-hydroxy-1-[(3R,4R)-1-(2-hydroxy-2-methyl-propyl)-3-phenyl-piperidine-4-carbonyl]-4-piperidyl]methyl]pyrimidin-4-one], the Ki was 326 nM.
Molecule `Nc1c(Oc2ccc(F)cc2)ncn(CC2(O)CCN(C(=O)[C@@H]3CCN(C(=O)c4ccc5c(c4)C(=O)C(=O)N5)C[C@H]3c3ccccc3)CC2)c1=O` [Example 58, 5-[(3R,4R)-4-[4-[[5-amino-4-(4-fluorophenoxy)-6-oxo-pyrimidin-1-yl]methyl]-4-hydroxy-piperidine-1-carbonyl]-3-phenyl-piperidine-1-carbonyl]indoline-2,3-dione] has a Ki of 6.51 nM.
Molecule `Nc1c(Oc2ccc(Cl)cc2)ncn(CC2(O)CCN(C(=O)[C@@H]3CCNC[C@H]3c3ccccc3)CC2)c1=O` [Example 14, 5-amino-6-(4-chlorophenoxy)-3-[[4-hydroxy-1-[(3R,4R)-3-phenylpiperidine-4-carbonyl]-4-piperidyl]methyl]pyrimidin-4-one hydrochloride] has a Ki of 115 nM.
Molecule `COc1cc(Cl)cc(Oc2ncn(CC3(O)CCN(C(=O)[C@@H]4CCN(C(=O)OC(C)(C)C)C[C@H]4c4ccccc4)CC3)c(=O)c2N)c1` [Example 2, tert-butyl (3R,4R)-4-[4-[[5-amino-4-(3-chloro-5-methoxy-phenoxy)-6-oxo-pyrimidin-1-yl]methyl]-4-hydroxy-piperidine-1-carbonyl]-3-phenyl-piperidine-1-carboxylate] has a Ki of 191 nM.
`Nc1c(Oc2cccc(C(F)(F)F)c2)ncn(CC2(O)CCN(C(=O)[C@@H]3CCNC[C@H]3c3ccccc3)CC2)c1=O` [Example 18, 5-amino-3-[[4-hydroxy-1-[(3R,4R)-3-phenylpiperidine-4-carbonyl]-4-piperidyl]methyl]-6-[3-(trifluoromethyl)phenoxy]pyrimidin-4-one hydrochloride] was tested, and the Ki was 329 nM.
